From patent US20230150946A1, “HETEROCYCLE CONTAINING STAT INHIBITORS AND COMPOSITIONS” (JANPIX LIMITED, priority 2020, published 2023)
Read-outs that look alike come from different tables or passages of the source.

Columns and labels:
[1] = Reactivity Profiling with Glutathione (GSH), HPLC; format: in vitro ADME; settings: 5 mM glutathione (GSH) in cell culture medium, 25 μM inhibitor, IMDM 10% FBS, 0.5% DMSO, 25° C., read-out: T1/2-GSH
Protocol: In some embodiments, metabolic stability of the compounds are evaluated according to their reactivity profiles with GSH.
3.5 μL of 5 mM stocking solution of the inhibitors in DMSO was added to 697.5 μL of Iscove's Modified Dulbecco's Medium (IMDM) supplemented with 10% FBS and antibiotic antimycotic solution, with 5 mM glutathione to afford a final concentration of 25 μM inhibitor with 0.5% DMSO. The solution was then immediately placed in the sample tray at 25° C. Sample was analyzed at pre-defined intervals, typically every 1.5 hours, for up to four injections, by HPLC, included at time zero, without further pre-treatment. For each inhibitor, its peak is integrated at different time points and compared to the time zero injection in order to obtain a percentage remaining. Half-life is calculated according to a first order reaction kinetic taking into account those time points for which remaining percentage of inhibitor is above 40%, using the formula: t½=Ln(2)/k, where k is the slope of the linear plot of Ln[Inhibitor] vs time, according to the formula: Ln[A]=Ln[A]0−kt, where [A] is the value resulting from the integration at each time point, [A]0 the value at time zero, and t the time. For each inhibitor, both replicates are averaged and the resulting t½ reported. Selective reactivity against GSH in particular is confirmed by incubation of the inhibitor in the same solution without the presence of GSH, and single analysis after a time longer than the latest time point analyzed for the samples with GSH.

[2] = system: MV4-11 cells; assay: MV4-11 Cell Cytotoxicity Assay (CellTiter-Blue, 72 h); format: cell-based, human; settings: 72 h at 37° C.
Protocol: In some embodiments, the potency of the STAT5 inhibitors are evaluated by an in vitro assay such as MV4-11 Cell Cytotoxicity Assay. MV4-11 cells were grown in Iscove's Modified Dulbecco's Medium (IMDM) supplemented with 10% fetal bovine serum (FBS). 10,000 cells were plated per well in 96-well flat-bottom sterile culture plates with low-evaporation lids. After 24 h, inhibitors and a vehicle control (0.5% DMSO) were added and the cells were incubated for 72 h at 37° C. in 5% CO2. Inhibitors were examined in triplicate at a maximal concentration of 50 μM, followed by 1:2 dilutions in subsequent wells (25, 12.5, 6.25, 3.125, 1.5625, 0.78125, 0.390625, 0.195313 and 0.097656 μM). After 72 h, the wells were treated with CellTiter-Blue® (20 μL/well), and the plates were incubated using standard cell culture conditions for 1 hour. Fluorescence was measured at 560/590 nm.

[3] = Homo sapiens, Table 3, read-out: IC50-MV-4-11

half-life at 25 μM [1] [h] | Compound | IC50 [2, 3] [nM] | also measured
4.12 to 9.23 | CC(C)(C)c1cc(CN(C(=O)CN(Cc2ccccc2F)S(=O)(=O)c2c(F)c(F)c(F)c(F)c2F)c2cnc(N)nc2)cc(C2CC2)c1 [Compound 1009, N-(2-aminopyrimidin-5-yl)-N-(3-(tert-butyl)-5-cyclopropylbenzyl)-2-(N-(2-fluorobenzyl)-(2,3,4,5,6-pentafluorophenyl)sulfonamido)acetamide] | 0.01 to 1000 | 
9.23 to 1670 | CN(C)c1c(NCCN(Cc2cc(C3CC3)cc(C(C)(C)C)c2)C(=O)CN(Cc2ccccc2F)S(=O)(=O)c2c(F)c(F)c(F)c(F)c2F)c(=O)c1=O [Compound 1010, N-(3-(tert-butyl)-5-cyclopropylbenzyl)-N-(2-((2-(dimethylamino)-3,4-dioxocyclobut-1-en-1-yl)amino)ethyl)-2-(N-(2-fluorobenzyl)-(2,3,4,5,6-pentafluorophenyl)sulfonamido)acetamide] | 0.01 to 1000 | 
 | CN(C)c1c(NCCN(Cc2cc(C3CC3)cc(C(C)(C)C)c2)C(=O)CN(Cc2c(F)cc(F)cc2F)S(=O)(=O)c2c(F)c(F)c(F)c(F)c2F)c(=O)c1=O [Compound 1011, N-(3-(tert-butyl)-5-cyclopropylbenzyl)-N-(2-((2-(dimethylamino)-3,4-dioxocyclobut-1-en-1-yl)amino)ethyl)-2-(N-(2,4,6-trifluorobenzyl)-(2,3,4,5,6-pentafluorophenyl)sulfonamido)acetamide] | 0.01 to 1000 | 
9.23 to 1670 | CC(C)(C)c1cc(CN(C(=O)CN(Cc2ccc(Cl)cc2)S(=O)(=O)c2c(F)c(F)c(F)c(F)c2F)c2ccc(O)nc2)cc(C2CC2)c1 [Compound 1002, N-(3-(tert-butyl)-5-cyclopropylbenzyl)-2-(N-(4-chlorobenzyl)-(2,3,4,5,6-pentafluorophenyl)sulfonamido)-N-(6-hydroxypyridin-3-yl) acetamide] | 1000 to 3160 | 
4.12 to 9.23 | CN(C)c1c(NCCN(Cc2cc(C3CC3)cc(C(C)(C)C)c2)C(=O)CN(Cc2cnccc2C(F)(F)F)S(=O)(=O)c2c(F)c(F)c(F)c(F)c2F)c(=O)c1=O [Compound 1012, N-(3-(tert-butyl)-5-cyclopropylbenzyl)-N-(2-((2-(dimethylamino)-3,4-dioxocyclobut-1-en-1-yl)amino)ethyl)-2-(N-((4-(trifluoromethyl)pyridin-3-yl)methyl)-(2,3,4,5,6-pentafluorophenyl)sulfonamido)acetamide] | 0.01 to 1000 | 
 | CC(C)(C)c1cc(CN(C(=O)CN(Cc2cnccc2C(F)(F)F)S(=O)(=O)c2c(F)c(F)c(F)c(F)c2F)c2cnc(N)nc2)cc(C2CC2)c1 [Compound 1017, N-(2-aminopyrimidin-5-yl)-N-(3-(tert-butyl)-5-cyclopropylbenzyl)-2-(N-((4-(trifluoromethyl)pyridin-3-yl)methyl)-(2,3,4,5,6-pentafluorophenyl)sulfonamido)acetamide] | 0.01 to 1000 | 
 | CNc1c(N(C)CCN(Cc2cc(C3CC3)cc(C(C)(C)C)c2)C(=O)CN(Cc2ccccc2F)S(=O)(=O)c2c(F)c(F)c(F)c(F)c2F)c(=O)c1=O [Compound 1016, N-(3-(tert-butyl)-5-cyclopropylbenzyl)-N-(2-(methyl(2-(methylamino)-3,4-dioxocyclobut-1-en-1-yl)amino)ethyl)-2-(N-(2-fluorobenzyl)-(2,3,4,5,6-pentafluorophenyl)sulfonamido)acetamide] | 0.01 to 1000 | 
9.23 to 1670 | CNc1c(NCCN(Cc2cc(C3CC3)cc(C(C)(C)C)c2)C(=O)CN(Cc2ccccc2F)S(=O)(=O)c2c(F)c(F)c(F)c(F)c2F)c(=O)c1=O [Compound 1013, N-(3-(tert-butyl)-5-cyclopropylbenzyl)-N-(2-((2-(methylamino)-3,4-dioxocyclobut-1-en-1-yl)amino)ethyl)-2-(N-(2-fluorobenzyl)-(2,3,4,5,6-pentafluorophenyl)sulfonamido)acetamide] | 0.01 to 1000 | 
 | CN(C)c1c(NCCCN(Cc2cc(C3CC3)cc(C(C)(C)C)c2)C(=O)CN(Cc2ccccc2F)S(=O)(=O)c2c(F)c(F)c(F)c(F)c2F)c(=O)c1=O [Compound 1015, N-(3-(tert-butyl)-5-cyclopropylbenzyl)-N-(3-((2-(dimethylamino)-3,4-dioxocyclobut-1-en-1-yl)amino)propyl)-2-(N-(2-fluorobenzyl)-(2,3,4,5,6-pentafluorophenyl)sulfonamido)acetamide] | 0.01 to 1000 | 
 | N-(3-(tert-butyl)-5- cyclopropylbenzyl)-2-(N-(4- chlorobenzyl)-(2,3,4,5,6- pentafluorophenyl) sulfonamido)-N-(2- methoxypyrimidin-5-yl) acetamide [Compound 1003] |  | IC50 ([2]; Table 3, read-out: IC50-MV-4-11): 1000 to 3160 nM
 | CC(C)(C)c1cc(CN(C(=O)CN(Cc2ccc(Cl)cc2)S(=O)(=O)c2c(F)c(F)c(F)c(F)c2F)c2cccnc2)cc(C2CC2)c1 [Compound 1001, N-(3-(tert-butyl)-5-cyclopropylbenzyl)-2-(N-(4-chlorobenzyl)-(2,3,4,5,6-pentafluorophenyl)sulfonamido)-N-(pyridin-3-yl) acetamide] | 1000 to 3160 | 
9.23 to 1670 | CC(C)(C)c1cc(CN(C(=O)CN(Cc2ccc(Cl)cc2)S(=O)(=O)c2c(F)c(F)c(F)c(F)c2F)c2cnc(N)nc2)cc(C2CC2)c1 [Compound 1006, N-(2-aminopyrimidin-5-yl)-N-(3-(tert-butyl)-5-cyclopropylbenzyl)-2-(N-(4-chlorobenzyl)-(2,3,4,5,6-pentafluorophenyl)sulfonamido)acetamide] | 1000 to 3160 | 
 | CC(C)(C)c1cc(CN(C(=O)CN(Cc2ccc(Cl)cc2)S(=O)(=O)c2c(F)c(F)c(F)c(F)c2F)C2=CNC(=O)NC2)cc(C2CC2)c1 [Compound 1018, N-(3-(tert-butyl)-5-cyclopropylbenzyl)-2-(N-(4-chlorobenzyl)-(2,3,4,5,6-pentafluorophenyl)sulfonamido)-N-(2-oxo-1,2,3,4-tetrahydropyrimidin-5-yl)acetamide] |  | IC50 ([2]; Homo sapiens, Table 4, read-out: IC50-MV-4-11): 1000 to 3160 nM
 | CC(C)(C)c1cc(CN(C(=O)CN(Cc2ccccc2F)S(=O)(=O)c2c(F)c(F)c(F)c(F)c2F)c2ccc(N)nc2)cc(C2CC2)c1 [Compound 1008, N-(6-aminopyridin-3-yl)-N-(3-(tert-butyl)-5-cyclopropylbenzyl)-2-(N-(2-fluorobenzyl)-(2,3,4,5,6-pentafluorophenyl)sulfonamido)acetamide] | 1000 to 3160 | 
 | CC(C)(C)c1cc(CN(C(=O)CN(Cc2ccc(Cl)cc2)S(=O)(=O)c2c(F)c(F)c(F)c(F)c2F)c2ccc(N)nc2)cc(C2CC2)c1 [Compound 1007, N-(6-aminopyridin-3-yl)-N-(3-(tert-butyl)-5-cyclopropylbenzyl)-2-(N-(4-chlorobenzyl)-(2,3,4,5,6-pentafluorophenyl)sulfonamido)acetamide] | 1000 to 3160 | 
 | CC(C)(C)c1cc(CN(C(=O)CN(Cc2ccc(Cl)cc2)S(=O)(=O)c2c(F)c(F)c(F)c(F)c2F)c2ccc(C(=O)O)nc2)cc(C2CC2)c1 [Compound 1004, 5-(N-(3-(tert-butyl)-5-cyclopropylbenzyl)-2-(N-(4-chlorobenzyl)-(2,3,4,5,6-pentafluorophenyl)sulfonamido)acetamido) picolinic acid] | 3160 to 100000 | 
9.23 to 1670 | CN(C)c1c(N(C)CCN(Cc2cc(C3CC3)cc(C(C)(C)C)c2)C(=O)CN(Cc2ccccc2F)S(=O)(=O)c2c(F)c(F)c(F)c(F)c2F)c(=O)c1=O [Compound 1014, N-(3-(tert-butyl)-5-cyclopropylbenzyl)-N-(2-((2-(dimethylamino)-3,4-dioxocyclobut-1-en-1-yl) (methyl)amino)ethyl)-2-(N-(2-fluorobenzyl)-(2,3,4,5,6-pentafluorophenyl)sulfonamido)acetamide] | 0.01 to 1000 | 
 | COc1ccc(N(Cc2cc(C3CC3)cc(C(C)(C)C)c2)C(=O)CN(Cc2ccc(Cl)cc2)S(=O)(=O)c2c(F)c(F)c(F)c(F)c2F)cn1 [Compound 1005, N-(3-(tert-butyl)-5-cyclopropylbenzyl)-2-(N-(4-chlorobenzyl)-(2,3,4,5,6-pentafluorophenyl)sulfonamido)-N-(6-methoxypyridin-3-yl) acetamide] | 3160 to 100000 | 
